Results from patent US20070275935A1, “Estratriene Derivatives” (priority 2003, published 2007).

Key:
cyclin D1 = assay: Thrombin-mediated cyclin D1 protein expression in HASM (Western blotting); format: cell-based, human; conditions: 0.01 μM-1 μM pre-incubation; thrombin 0.3 U/ml, 8 h
Experimental: Human airway smooth muscle cells were cultured as described above in the proliferation experiments. Cells were serum-deprived for 24 h and stimulated with thrombin (0.3 U/ml) for 8h before harvest of protein for Western Blotting of cyclin D1.

[1] = system: bleomycin-induced fibrosis in C57BL6 female mice; assay: Bleomycin model of pulmonary fibrosis in mice; format: in vivo; conditions: 4NO 50 mg/kg/day i.p.
Experimental: The activity of CP-DM-2-11-7 was investigated using a bleomycin model of pulmonary fibrosis (Underwood et al. 2000). 4NO was administered daily commencing on the day of the bleomycin challenge, 2 hours before the mice received bleomycin. The 4NO (50 mg/kg/day, by intraperitoneal injection) was then administered throughout the 14 day period. The mice also received a daily injection of bromo-deoxyuridine (BrdU) by intraperitoneal injection). The other two groups of mice), control and bleomycin-treated received a daily intraperitoneal injection of the vehicle containing BrdU. The vehicle comprised 10% dimethyl sulphoxide in peanut oil. […]
Body weight was measured throughout the experiment. […] After a 5 minute stabilization period, values of resistance and compliance were recorded and the animal was killed by a lethal dose of pentabarbitone.
Half of each group of animals was then subjected to bronchoalveolar lavage (BAL) to generate BAL fluid (BALF) in which the number of infiltrating cells was counted by haemocytometry. […]
Tissue areas reported in Table 6 were determined by capturing images of the lung section at a 100 times magnification and importing those images into a powerpoint file. […]
A 36 point overlay was then applied to the captured image and the number of grid points that intersect with tissue was determined for each of the 10 selected fields. […]

COc1cc2c(cc1O)C(=NOCc1ccc([N+](=O)[O-])cc1)C[C@@H]1[C@@H]2CC[C@]2(C)[C@@H](O)CC[C@@H]12 [CP-DM-2-11-7, 2-methoxy-6-(4-nitrobenzyloxy)iminoestradiol]
cyclin D1 protein levels (cyclin D1): concentration-dependent reduction in the cyclin D1 protein levels | Proliferation Epithelial ([1]; BrdU positive nuclei as percentage of total nuclei, major airway, n = 6, bleomycin alone 4.646 ± 0.8564): 3.802 ± 0.9053 | Parenchymal Cell Prolif. ([1]; magnification of 600×, bleomycin alone 1340 ± 287): 738 ± 185 positive cells/10^6 pixels
